Experimental findings from ChEMBL document CHEMBL3882732, “4,5-diaryl-3(2H)-furanone derivatives as cyclooxygenase-2 inhibitors” (2002) are described below.

What is called IC50 is the concentration that gives 50% inhibition. Usually inhibition in vivo stands for the percentage by which the read-out fell short of the control. As a reminder, the ED50 is the midpoint of the dose-response relation.

Structures are written as SMILES.

In series [1] the target is T1, Prostaglandin G/H synthase 1 (Mus musculus, UniProt P22437).
T1 sequence (P22437 whole entry): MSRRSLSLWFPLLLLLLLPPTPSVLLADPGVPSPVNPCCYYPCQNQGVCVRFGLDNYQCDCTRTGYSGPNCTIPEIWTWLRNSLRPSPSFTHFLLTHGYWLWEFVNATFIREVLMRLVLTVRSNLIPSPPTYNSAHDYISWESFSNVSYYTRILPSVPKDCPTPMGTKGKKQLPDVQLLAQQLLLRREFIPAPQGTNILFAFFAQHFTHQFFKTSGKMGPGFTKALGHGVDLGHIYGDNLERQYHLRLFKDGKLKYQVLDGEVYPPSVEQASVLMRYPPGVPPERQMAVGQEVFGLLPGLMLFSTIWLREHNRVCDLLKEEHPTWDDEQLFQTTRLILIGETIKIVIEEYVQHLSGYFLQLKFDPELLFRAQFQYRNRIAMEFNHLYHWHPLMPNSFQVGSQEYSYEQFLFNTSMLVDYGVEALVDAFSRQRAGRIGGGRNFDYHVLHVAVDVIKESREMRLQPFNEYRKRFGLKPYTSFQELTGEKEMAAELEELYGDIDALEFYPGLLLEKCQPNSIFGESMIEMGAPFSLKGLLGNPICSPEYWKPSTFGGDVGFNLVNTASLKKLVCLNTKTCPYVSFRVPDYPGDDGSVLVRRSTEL
In words: Inhibition of COX1 in C57BL/6 mouse peritoneal macrophages assessed as reduction in PGE2 formation pre-incubated for 2 hrs followed by arachidonic acid addition and measured after 10 mins by radio-immuno assay or enzyme-immunoassay.

Series [2] in a line: Drug level in Sprague-Dawley rat blood treated with 4-(3-Chlorophenyl)-2,2-dimethyl-5-{4-(methylsulfinyl)phenyl}-3(2H)-furanone at 10 mg/kg dosed through oral gavage assessed as sulfoxide to sulfonyl bio-transformation by measuring compound level measured after 24 to 48 hrs by HPLC method. In kind it is ADME, organism-based. As to conditions: in vivo.
Series [3] in a line: Drug metabolism in Sprague-Dawley rat blood assessed as sulfoxide to sulfonyl bio-transformation by measuring compound-62 level at 10 mg/kg dosed through oral gavage measured after 24 to 48 hrs by HPLC method. As to conditions: in vivo. The format is ADME, organism-based.
Series [4] concerns Rattus norvegicus. Briefly: Anti-inflammatory activity in Sprague-Dawley rat assessed as inhibition of carrageenan-induced foot edema at 3 mg/kg dosed through oral gavage 1 hr before carrageenan challenge and measured 3 hrs after carrageenan challenge. In kind it is functional. For orientation: Carrageenan injected into the paw causes an acute inflammation.
The target in series [5] is T2, Prostaglandin G/H synthase 2 (Mus musculus, UniProt Q05769).
T2 sequence (Q05769 whole entry): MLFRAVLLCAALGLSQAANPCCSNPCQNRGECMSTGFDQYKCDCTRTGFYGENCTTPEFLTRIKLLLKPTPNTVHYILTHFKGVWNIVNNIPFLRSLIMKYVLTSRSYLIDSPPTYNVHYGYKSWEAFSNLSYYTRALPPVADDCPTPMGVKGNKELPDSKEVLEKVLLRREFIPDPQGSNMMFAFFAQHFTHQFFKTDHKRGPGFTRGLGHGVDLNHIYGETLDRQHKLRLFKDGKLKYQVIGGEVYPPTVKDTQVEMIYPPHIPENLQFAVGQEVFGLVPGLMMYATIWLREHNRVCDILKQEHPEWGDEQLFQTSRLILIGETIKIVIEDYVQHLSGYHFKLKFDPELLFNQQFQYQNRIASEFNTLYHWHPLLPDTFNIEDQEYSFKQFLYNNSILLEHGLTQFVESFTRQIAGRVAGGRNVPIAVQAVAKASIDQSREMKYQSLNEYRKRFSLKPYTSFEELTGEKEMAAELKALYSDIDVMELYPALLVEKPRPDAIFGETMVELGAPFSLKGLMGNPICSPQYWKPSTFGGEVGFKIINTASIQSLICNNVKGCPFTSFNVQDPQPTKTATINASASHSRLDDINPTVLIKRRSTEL
Briefly: Inhibition of COX2 in C57BL/6 mouse peritoneal macrophages assessed as reduction in PGE2 formation pre-incubated for 2 hrs before LPS stimulation for 16 hrs followed by arachidonic acid addition and measured after 10 mins in presence of 500 uM aspirin by radio-immuno assay or enzyme-immunoassay.

In series [6] the test system is Rattus norvegicus. Briefly: Anti-inflammatory activity in Sprague-Dawley rat model of […] Freund's adjuvant-induced arthritis assessed as inhibition of adjuvant-induced arthritis dosed through oral gavage daily once beginning on day 14 after adjuvant injection and continued till day 22 after adjuvant injection by displacement plethysmometry. The format is functional.

Series [7] concerns Mus musculus. Briefly: Analgesic activity in ICR mouse assessed as reduction in number of abdominal constrictions dosed through oral gavage one hr before acetic acid challenge measured after 6 mins post acetic acid challenge by acetic acid-induced writhing test. In kind it is functional. As to conditions: Abdomen, 0.1 h. Background: An intraperitoneal irritant provokes the stretching counted in writhing tests.

In the case of `CC(C)c1ccc(C2=C(c3ccc(S(C)(=O)=O)cc3)OC3(CCCC3)C2=O)cc1`, the half-inhibitory concentration (IC50) in series [1] is 24.4 µM.

With `CC1(C)OC(c2ccc(S(C)(=O)=O)cc2)=C(c2cccc(Cl)c2)C1=O`, the Drug metabolism entry in series [2] was “Metabolite_Detected”.

Regarding `C[S+]([O-])c1ccc(C2=C(c3cccc(Cl)c3)C(=O)C(C)(C)O2)cc1` (stereo not drawn), in series [3], the Drug metabolism entry was “Metabolite_Detected”.

For `CC1(C)OC(c2ccc(S(N)(=O)=O)c(F)c2)=C(c2ccc(F)cc2F)C1=O`, the inhibition in vivo at 3 mg/kg in series [4] was 32%.

As to `CC(=O)c1cccc(C2=C(c3ccc(S(N)(=O)=O)cc3)OC(C)(C)C2=O)c1`, the half-inhibitory concentration (IC50) in series [1] was 8.98 µM; in series [5], 0.0337 µM.

Turning to `C[S+]([O-])c1ccc(C2=C(c3cccc(F)c3)C(=O)C(C)(C)O2)cc1` (stereo not drawn), in series [1], the IC50 was 29 µM.

Regarding `CC1(C)OC(c2ccc(S(N)(=O)=O)cc2F)=C(c2ccc(F)cc2)C1=O`, the ED50 in series [6] turned out to be 0.09 mg/kg.

As for `C[S+]([O-])c1ccc(C2=C(c3ccc(F)cc3)C(=O)C(C)(C)O2)cc1` (stereo not drawn), the 50% inhibitory concentration (IC50) was 87.1 µM in series [1] and 8.71 µM in series [5].

In the case of `CC1(C)OC(c2ccc(S(N)(=O)=O)cc2)=C(c2cccc(Cl)c2)C1=O`, the ED50 in series [6] is 0.03 mg/kg.

For the molecule `CC1(C)OC(c2ccc(S(C)(=O)=O)cc2)=C(c2cccc(F)c2)C1=O`, the ED50 in series [7] was 8.3 mg/kg; in series [6] it was 0.07 mg/kg.

As for `CC1(C)OC(c2ccc(S(C)(=O)=O)cc2)=C(c2cc(F)cc(F)c2)C1=O`, the ED50 in series [6] worked out at 0.03 mg/kg.

Take `CC1(C)OC(c2ccc(S(C)(=O)=O)cc2)=C(c2cccc(C(F)(F)F)c2)C1=O`: the ED50 in series [6] turned out to be 0.06 mg/kg.

Turning to `COc1ccc2c(c1)c(CC(=O)O)c(C)n2C(=O)c1ccc(Cl)cc1` [INDOMETHACIN], the ED50 in series [7] stood at 7.4 mg/kg.

On to `CC1(C)OC(c2ccc(S(N)(=O)=O)cc2)=C(c2cccc(F)c2)C1=O` [POLMACOXIB], for which the ED50 in series [7] stood at 12.3 mg/kg; in series [6], 0.02 mg/kg.
